Assay results published in the NIST ThermoML archive (doi:10.1016/j.tca.2013.05.007).

Key:
[1] = DTA
[2] = molar heat capacity at constant pressure; settings: 101.33 kPa, Liquid, Large sample (1 g) DSC

CCCCn1cc[n+](C)c1.N#CN=C=[N-] [1-butyl-3-methylimidazolium dicyanamide]
Settings | Normal melting temperature [°C] | Triple point temperature [K] | molar heat capacity at constant pressure [J/K/mol]
[1], Crystal 1 | -6 | – | –
[1], Crystal 2 | – | 225 | –
[2], 293.15 K | – | – | 372
[2], 294.15 K | – | – | 373
[2], 295.15 K | – | – | 374
[2], 296.15 K | – | – | 375
[2], 297.15 K | – | – | 375
[2], 298.15 K | – | – | 376
[2], 299.15 K | – | – | 377
[2], 300.15 K | – | – | 377
[2], 301.15 K | – | – | 378
[2], 302.15 K | – | – | 378
[2], 303.15 K | – | – | 379
[2], 304.15 K | – | – | 379
[2], 305.15 K | – | – | 380
[2], 306.15 K | – | – | 380
[2], 307.15 K | – | – | 381
[2], 308.15 K | – | – | 381
[2], 309.15 K | – | – | 382
[2], 310.15 K | – | – | 382
[2], 311.15 K | – | – | 382
[2], 312.15 K | – | – | 383
[2], 313.15 K | – | – | 383
[2], 314.15 K | – | – | 384
[2], 315.15 K | – | – | 384
[2], 316.15 K | – | – | 384
[2], 317.15 K | – | – | 385
[2], 318.15 K | – | – | 385
[2], 319.15 K | – | – | 385
[2], 320.15 K | – | – | 386
[2], 321.15 K | – | – | 386
[2], 322.15 K | – | – | 387
[2], 323.15 K | – | – | 387
[2], 324.15 K | – | – | 388
[2], 325.15 K | – | – | 388
[2], 326.15 K | – | – | 388
[2], 327.15 K | – | – | 389
[2], 328.15 K | – | – | 389
[2], 329.15 K | – | – | 390
[2], 330.15 K | – | – | 390
[2], 331.15 K | – | – | 391
[2], 332.15 K | – | – | 391
[2], 333.15 K | – | – | 392

Settings | Glass transition temperature [°C]
[1] | -92

CCC[n+]1cccc(C)c1.O=S(=O)([N-]S(=O)(=O)C(F)(F)F)C(F)(F)F
Settings | Glass transition temperature [°C]
[1] | -88

[2]
Settings | molar heat capacity at constant pressure [J/K/mol]
293.15 K | 510
294.15 K | 511
295.15 K | 513
296.15 K | 514
297.15 K | 516
298.15 K | 517
299.15 K | 518
300.15 K | 519
301.15 K | 520
302.15 K | 521
303.15 K | 522
304.15 K | 523
305.15 K | 524
306.15 K | 525
307.15 K | 526
308.15 K | 527
309.15 K | 528
310.15 K | 529
311.15 K | 530
312.15 K | 531
313.15 K | 532
314.15 K | 532
315.15 K | 533
316.15 K | 534
317.15 K | 535
318.15 K | 536
319.15 K | 536
320.15 K | 537
321.15 K | 538
322.15 K | 539
323.15 K | 540
324.15 K | 541
325.15 K | 541
326.15 K | 542
327.15 K | 543
328.15 K | 544
329.15 K | 545
330.15 K | 546
331.15 K | 547
332.15 K | 548
333.15 K | 549

CC[n+]1cccc(C)c1.O=S(=O)([N-]S(=O)(=O)C(F)(F)F)C(F)(F)F
Settings | Normal melting temperature [°C] | molar heat capacity at constant pressure [J/K/mol]
[1], Crystal | -1 | –
[2], 293.15 K | – | 484
[2], 294.15 K | – | 486
[2], 295.15 K | – | 487
[2], 296.15 K | – | 489
[2], 297.15 K | – | 490
[2], 298.15 K | – | 491
[2], 299.15 K | – | 493
[2], 300.15 K | – | 494
[2], 301.15 K | – | 495
[2], 302.15 K | – | 496
[2], 303.15 K | – | 497
[2], 304.15 K | – | 498
[2], 305.15 K | – | 499
[2], 306.15 K | – | 500
[2], 307.15 K | – | 501
[2], 308.15 K | – | 502
[2], 309.15 K | – | 502
[2], 310.15 K | – | 503
[2], 311.15 K | – | 504
[2], 312.15 K | – | 505
[2], 313.15 K | – | 506
[2], 314.15 K | – | 507
[2], 315.15 K | – | 507
[2], 316.15 K | – | 508
[2], 317.15 K | – | 509
[2], 318.15 K | – | 510
[2], 319.15 K | – | 510
[2], 320.15 K | – | 511
[2], 321.15 K | – | 512
[2], 322.15 K | – | 513
[2], 323.15 K | – | 514
[2], 324.15 K | – | 514
[2], 325.15 K | – | 515
[2], 326.15 K | – | 516
[2], 327.15 K | – | 517
[2], 328.15 K | – | 518
[2], 329.15 K | – | 519
[2], 330.15 K | – | 519
[2], 331.15 K | – | 520
[2], 332.15 K | – | 521
[2], 333.15 K | – | 522

CCCCn1cc[n+](C)c1.O=S(=O)([O-])C(F)(F)F [1-butyl-3-methylimidazolium trifluoromethanesulfonate]
Settings | Normal melting temperature [°C] | molar heat capacity at constant pressure [J/K/mol]
[1], Crystal | 12 | –
[2], 323.15 K | – | 456
[2], 324.15 K | – | 457
[2], 325.15 K | – | 458
[2], 326.15 K | – | 459
[2], 327.15 K | – | 460
[2], 328.15 K | – | 461
[2], 329.15 K | – | 462
[2], 330.15 K | – | 463
[2], 331.15 K | – | 464
[2], 332.15 K | – | 465
[2], 333.15 K | – | 466
[2], 334.15 K | – | 467
[2], 335.15 K | – | 467
[2], 336.15 K | – | 468
[2], 337.15 K | – | 469
[2], 338.15 K | – | 470
[2], 339.15 K | – | 471
[2], 340.15 K | – | 472
[2], 341.15 K | – | 473
[2], 342.15 K | – | 474
[2], 343.15 K | – | 475
[2], 344.15 K | – | 476
[2], 345.15 K | – | 477
[2], 346.15 K | – | 477
[2], 347.15 K | – | 478
[2], 348.15 K | – | 479
[2], 349.15 K | – | 480
[2], 350.15 K | – | 481
[2], 351.15 K | – | 481
[2], 352.15 K | – | 482
[2], 353.15 K | – | 483

CCCC[n+]1cccc(C)c1.O=S(=O)([N-]S(=O)(=O)C(F)(F)F)C(F)(F)F
Settings | Glass transition temperature [°C]
[1] | -85

[2]
Settings | molar heat capacity at constant pressure [J/K/mol]
293.15 K | 541
294.15 K | 542
295.15 K | 544
296.15 K | 546
297.15 K | 547
298.15 K | 548
299.15 K | 550
300.15 K | 551
301.15 K | 552
302.15 K | 553
303.15 K | 554
304.15 K | 555
305.15 K | 556
306.15 K | 557
307.15 K | 558
308.15 K | 559
309.15 K | 560
310.15 K | 561
311.15 K | 562
312.15 K | 563
313.15 K | 564
314.15 K | 564
315.15 K | 565
316.15 K | 566
317.15 K | 567
318.15 K | 568
319.15 K | 569
320.15 K | 570
321.15 K | 570
322.15 K | 571
323.15 K | 572
324.15 K | 573
325.15 K | 574
326.15 K | 575
327.15 K | 576
328.15 K | 577
329.15 K | 578
330.15 K | 579
331.15 K | 580
332.15 K | 581
333.15 K | 582

CCCC[n+]1cccc(C)c1.O=S(=O)([O-])C(F)(F)F [1-butyl-3-methylpyridinium trifluoromethanesulfonate]
Settings | Normal melting temperature [°C] | molar heat capacity at constant pressure [J/K/mol]
[1], Crystal 1 | 30 | –
[1], Metastable crystal | -6 | –
[2], 323.15 K | – | 461
[2], 324.15 K | – | 462
[2], 325.15 K | – | 464
[2], 326.15 K | – | 465
[2], 327.15 K | – | 467
[2], 328.15 K | – | 468
[2], 329.15 K | – | 469
[2], 330.15 K | – | 471
[2], 331.15 K | – | 472
[2], 332.15 K | – | 473
[2], 333.15 K | – | 474
[2], 334.15 K | – | 475
[2], 335.15 K | – | 476
[2], 336.15 K | – | 478
[2], 337.15 K | – | 479
[2], 338.15 K | – | 480
[2], 339.15 K | – | 481
[2], 340.15 K | – | 482
[2], 341.15 K | – | 483
[2], 342.15 K | – | 485
[2], 343.15 K | – | 486
[2], 344.15 K | – | 487
[2], 345.15 K | – | 488
[2], 346.15 K | – | 489
[2], 347.15 K | – | 490
[2], 348.15 K | – | 491
[2], 349.15 K | – | 492
[2], 350.15 K | – | 493
[2], 351.15 K | – | 494
[2], 352.15 K | – | 495
[2], 353.15 K | – | 496

Settings | Glass transition temperature [°C]
[1] | -76
